Test results: patent US6159705A, “Recombinant yeast cells for identifying receptor effectors” (Cadus Pharmaceutical Corporation, priority 1997, dated 2000)
Read-outs that look alike come from different tables or passages of the source. Where no end group is shown, it is not given here.

Legend:
[1] = tested on: CY6571 yeast growth (HIS3 gene product); assay: Elimination of LIRMA growth, strain CY6571 (FPRL-1); type: cell-based, S. cerevisiae; details: CY6571, selective media
Description: (§1) It was determined that the yeast growth on selective media that resulted from LIRMA was eliminated by the additional of 2.5 millimolar concentrations of 3-aminotriazole (AT). AT is an inhibitor of the HIS3 gene product that serves to reduce background growth. Therefore, selection protocols aimed at the identification of surrogate ligands for the FPRL-1 receptor were carried out at this concentration of AT.

[2] = tested on: CY7467 yeast growth (HIS3 gene product); assay: Elimination of LIRMA growth, strain CY7467 (thrombin receptor); type: cell-based, S. cerevisiae; details: CY7467, selective media
Description: as §1, with “addition” for “additional”, “novel peptide” for “surrogate”, “human thrombin” for “FPRL-1”

FPRL-1 receptor = biological target: T1, FPRL-1 receptor (Homo sapiens, UniProt P25090)
T1 sequence (P25090 1-351): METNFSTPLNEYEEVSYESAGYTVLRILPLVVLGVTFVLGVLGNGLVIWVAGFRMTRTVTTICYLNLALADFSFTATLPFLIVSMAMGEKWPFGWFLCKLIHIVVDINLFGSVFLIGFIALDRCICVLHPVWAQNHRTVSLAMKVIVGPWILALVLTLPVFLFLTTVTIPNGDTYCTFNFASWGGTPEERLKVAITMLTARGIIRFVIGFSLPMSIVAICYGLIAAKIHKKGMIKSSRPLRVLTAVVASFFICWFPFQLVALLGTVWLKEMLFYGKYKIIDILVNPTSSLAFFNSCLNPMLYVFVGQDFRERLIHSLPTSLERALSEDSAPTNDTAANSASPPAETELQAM
Description: For verificatiin of pheromone pathway activation and quantification of the stimulation, the activity of the fus1 promoter was determined colorimetrically using a fus1-lacZ fusion in a parallel set of test strains. CY1141, described above, was used as the recipient strain for these experiments. […] Four strains (bearing the identical plasmids) were grown overnight in minimal media lacking leucine, uracil, and tryptophan, pH8.6. The overnight cultures were used to inoculate -Leu -Ura -Trp pH6.8 media and these new cultures were grown for approximately 4.5-5 hours to an OD600 of less than 0.4.

[3] = tested on: human orphan receptor FPRL-1; assay: Growth on -Leu-Ura-His + 2.5 mM AT, yeast expressing FPRL-1; type: cell-based; details: yeast bearing FPRL-1-encoding plasmid (CY6571), plasmids A1 and A3-A10
Excerpt: The yeast strain CY1141 (MATalpha far1*1441 tbt1-1 fus1-HIS3 can 1 ste14::trp1:;LYS2 ste3*1156 gpa1(41)-Galphai2 lys2 ura3 leu2 trp1 his3) was used in the experiments that follow. CY1141 contains a pheromone inducible HIS3 gene, fus1-HIS3 integrated at the FUS1 locus and a hybrid gene encoding the first 41 amino acids of GPA1 (yeast G alpha) fused to sequence encoding human G alphai2 (lacking codons encoding the N-terminal 33 amino acids) replacing GPA1 at its chromosomal locus. The yeast STE14 gene is disrupted to lower the basal level of signaling through the pheromone response pathway. The yeast a-factor receptor gene, STE3, is deleted. CY1141 was transformed with Cadus 2311 to yield CY6571, a strain expressing the human orphan receptor, FPRL-1.
It was determined that the yeast growth on selective media that resulted from LIRMA was eliminated by the additional of 2.5 millimolar concentrations of 3-aminotriazole (AT). AT is an inhibitor of the HIS3 gene product that serves to reduce background growth. […]
CY6571 was inoculated to 10 mls of standard synthetic media (SD) lacking leucine (-Leu) and incubated overnight at 30° C. […] The OD600 of each cell suspension was determined and crude plasmid isolations were done on 8-16 OD units of cells for each pool. […]

human thrombin receptor = assay: Growth on -Leu-Ura-His + 2.5 mM AT, yeast expressing thrombin receptor; type: cell-based; details: yeast bearing thrombin receptor plasmid (CY7467)
Excerpt: The amplified product was purified by gel electrophoresis, restricted with NcoI and BamHI and ligated to NcoI and BamHI-cut CADUS 1871, a PGK promoter-driven expression vector, to yield CADUS 2260. Cloning into CADUS 1871 introduces a novel stop codon preceded by the triplet GlySerVal after the authentic carboxy terminal codon of the human thrombin receptor (threonine). In addition, an invertase signal sequence is fused to the authentic amino terminus of the receptor.
The yeast strain CY1141 (MATalpha far1*1442 tbt1-1 fus1-HIS3 can1 ste14::trp1::LYS2 ste3* 1156 gpal(41)-Galphai2 lys2 ura3 leu2 trp1 his3) was transformed with CADUS 2260 to yield strain CY7467, expressing the human thrombin receptor. CY7467 was inoculated to 10 mls of standard synthetic media (SD) lacking leucine (-Leu) and incubated overnight at 30 C. […] The OD600 of each cell suspension was determined and crude plasmid isolations were done on 8-16 OD units of cells for each pool. […]
Strain CY7467 was transformed with […] of each plasmid pool by electroporation. […] The cells from each of these plates were scraped into 5 mls of H2 O, the OD600 of the cell suspensions were determined and crude plasmid isolations were done on 8-16 OD units of yeast cells. […]

Nc1nc[nH]n1 [3-aminotriazole]
concentration at which LIRMA growth was eliminated [1]: 2.5 millimolar | concentration at which LIRMA growth was eliminated [2]: 2.5 millimolar

SLLWLTCRPWEAM [peptide A1]
β-galactosidase activity (FPRL-1 receptor; R+ L+ (CY1141/CADUS 2311/peptide A1/CADUS 1584)): 28 units | β-galactosidase activity (FPRL-1 receptor; R- L+ (CY1141/CADUS 1289/peptide A1/CADUS 1584)): 3.5 units | stimulation over background levels of β-galactosidase (FPRL-1 receptor; yeast cy1141): 8 fold | growth advantage on media lacking histidine [3]: conferred a growth advantage

VCPARYVLPGPVL [SEQ ID NO:45, peptide from random library, conferring growth via human thrombin receptor]
growth advantage on media lacking histidine (human thrombin receptor): conferred a growth advantage
